Measurements: patent publication US11000033B2, “Ketone or oxime compound, and herbicide” (NISSAN CHEMICAL CORPORATION, priority 2014, dated 2021)

Key:
Scirpus juncoides = experiment: Test Example 1: herbicidal activity, application before weed generation in submerged conditions (symbol B); format: in vivo; settings: application herbicide amount 320 g/ha
Method in brief: (§1)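 Compound emulsion was diluted to a set herbicide amount and applied to the water surface on the sowing day, into submerged (4 cm) alluvial-soil pots sown with mixed weed seeds and transplanted 2.5-leaf rice. Pots were held in a 25–30 °C greenhouse, and weeds were scored 0–5 by herbicidal ratio after 3 weeks.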

Veronica persica = experiment: Test Example 4: herbicidal effect by soil treatment (symbol R); format: in vivo; settings: application herbicide amount 320 g/ha
Method in brief: (§2)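 Seeds were sown in sterilized diluvial soil, covered with about 1.5 cm of soil, and the soil surface was sprayed with a water-diluted emulsion of the compound at a predetermined rate. Plants grew in a greenhouse at 25° C. to 30° C.; effects were scored visually 3 weeks after application.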

Amaranthus retroflexus = experiment: Test Example 4: herbicidal effect by soil treatment (symbol N); format: in vivo; settings: application herbicide amount 320 g/ha
Method in brief: as §2

Setaria viridis [1] = experiment: Test Example 5: herbicidal effect by foliage application, plastic box (symbol G); format: in vivo; settings: 320 g/ha, 3 weeks after application
Method in brief: (§3)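 After sowing into sterilized diluvial soil and growing two weeks under glass at 25° C. to 30° C., seedlings receive a uniform foliar spray of diluted emulsion. Damage is judged visually three weeks on.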

Setaria viridis [2] = experiment: Test Example 4: herbicidal effect by soil treatment (symbol G); format: in vivo; settings: application herbicide amount 320 g/ha
Method in brief: as §2

Alopecurus myosuroides = experiment: Test Example 5: herbicidal effect by foliage application, plastic box (symbol J); format: in vivo; settings: 320 g/ha, 3 weeks after application
Method in brief: as §3

[3] = system: Echinochloa oryzacola Vasing.; experiment: Test Example 1: herbicidal activity, application before weed generation in submerged conditions (symbol A); format: in vivo; settings: application herbicide amount 320 g/ha
Method in brief: as §1

[4] = system: Echinochloa crus-galli var. crus-galli; experiment: Test Example 5: herbicidal effect by foliage application, plastic box (symbol H); format: in vivo; settings: 320 g/ha, 3 weeks after application
Method in brief: as §3

Chenopodium album = experiment: Test Example 4: herbicidal effect by soil treatment (symbol O); format: in vivo; settings: application herbicide amount 320 g/ha
Method in brief: as §2

Galium spurium = experiment: Test Example 4: herbicidal effect by soil treatment (symbol Q); format: in vivo; settings: application herbicide amount 320 g/ha
Method in brief: as §2

For `CON=C(C)CC1CC(O)=C(c2c(C)cc(C3CC3)cc2C)C1=O` (stereo not shown) [6-050], the “Herbicidal effect grade, B: Scirpus juncoides” value (“Herbicidal effect grade, B” for short) (Scirpus juncoides) was 1 (Herbicidal ratio of 5% or higher and lower than 20%), the melting point was 170 to 178 °C and the “R: Veronica persica, herbicidal effect grade” value (Veronica persica) was 0 (Herbicidal ratio of 5% or lower (almost no effect)). For the same compound, the “N: Amaranthus retroflexus, herbicidal effect grade” value (Amaranthus retroflexus) was 0 (Herbicidal ratio of 5% or lower (almost no effect)), the “G: Setaria viridis, herbicidal effect grade” value (Setaria viridis [1]) was 2 (Herbicidal ratio of 20% or higher and lower than 40%) and the “G: Setaria viridis, herbicidal effect grade” value (Setaria viridis [2]) was 4 (Herbicidal ratio of 70% or higher and lower than 90%). For the same compound, the “J: Alopecurus myosuroides, herbicidal effect grade” value (Alopecurus myosuroides) was 5 (Herbicidal ratio of 90% or more (almost completely withered)), the “Herbicidal effect grade, A: Echinochloa oryzacola Vasing.” value [3] was 3 (Herbicidal ratio of 40% or higher and lower than 70%) and the “H: Echinochloa crus-galli var. crus-galli, herbicidal effect grade” value [4] was 4 (Herbicidal ratio of 70% or higher and lower than 90%).
In the case of `CON=C(C)CC1CC(O)=C(c2c(F)cc(Br)cc2OC)C1=O` (stereo not shown) [6-096], the “Herbicidal effect grade, B” value (Scirpus juncoides) is reported as 0 (Herbicidal ratio of 5% or lower (almost no effect)), the melting point is reported as 157 to 159 °C and the “Herbicidal effect grade, R: Veronica persica” value (“Herbicidal effect grade, R” for short) (Veronica persica) is reported as 0 (Herbicidal ratio of 5% or lower (almost no effect)). The “Herbicidal effect grade, N: Amaranthus retroflexus” value (“Herbicidal effect grade, N” below) (Amaranthus retroflexus) was 0 (Herbicidal ratio of 5% or lower (almost no effect)), the “Herbicidal effect grade, O: Chenopodium album” value (“Herbicidal effect grade, O” for short) (Chenopodium album) was 0 (Herbicidal ratio of 5% or lower (almost no effect)) and the “Herbicidal effect grade, G: Setaria viridis” value (“Herbicidal effect grade, G” for short) (Setaria viridis [2]) was 4 (Herbicidal ratio of 70% or higher and lower than 90%). For the same compound, the “J: Alopecurus myosuroides, herbicidal effect (criteria of Test Example 1)” value (Alopecurus myosuroides) was 4 (Herbicidal ratio of 70% or higher and lower than 90%) and the “Herbicidal effect grade, A: Echinochloa oryzacola Vasing.” value [3] was 1 (Herbicidal ratio of 5% or higher and lower than 20%).
For `COc1cc(C)c(C2=C(O)CC(CC(C)=O)C2=O)c(C)c1` (stereo not shown) [7-020], the “Herbicidal effect grade, B” value (Scirpus juncoides) was 0 (Herbicidal ratio of 5% or lower (almost no effect)), the “Herbicidal effect grade, R” value (Veronica persica) was 0 (Herbicidal ratio of 5% or lower (almost no effect)) and the “Herbicidal effect grade, N” value (Amaranthus retroflexus) was 0 (Herbicidal ratio of 5% or lower (almost no effect)). For the same compound, the “G: Setaria viridis, herbicidal effect (criteria of Test Example 1)” value (Setaria viridis [1]) was 3 (Herbicidal ratio of 40% or higher and lower than 70%), the “Herbicidal effect grade, Q: Galium spurium” value (shortened to “Herbicidal effect grade, Q”) (Galium spurium) was 0 (Herbicidal ratio of 5% or lower (almost no effect)) and the “Herbicidal effect grade, O” value (Chenopodium album) was 0 (Herbicidal ratio of 5% or lower (almost no effect)). For the same compound, the “Herbicidal effect grade, G” value (Setaria viridis [2]) was 2 (Herbicidal ratio of 20% or higher and lower than 40%), the “J: Alopecurus myosuroides, herbicidal effect (criteria of Test Example 1)” value (Alopecurus myosuroides) was 4 (Herbicidal ratio of 70% or higher and lower than 90%) and the “Herbicidal effect grade, A: Echinochloa oryzacola Vasing.” value [3] was 2 (Herbicidal ratio of 20% or higher and lower than 40%). For the same compound, the “H: Echinochloa crus-galli var. crus-galli, herbicidal effect (criteria of Test Example 1)” value [4] was 4 (Herbicidal ratio of 70% or higher and lower than 90%).
In the case of `CC(=O)CC1CC(O)=C(c2c(C)cc(-c3ccc(C)cc3)cc2C)C1=O` (stereo not shown) [7-007], the “Herbicidal effect grade, B” value (Scirpus juncoides) is reported as 1 (Herbicidal ratio of 5% or higher and lower than 20%), the “Herbicidal effect grade, R” value (Veronica persica) is reported as 0 (Herbicidal ratio of 5% or lower (almost no effect)) and the “Herbicidal effect grade, N” value (Amaranthus retroflexus) is reported as 0 (Herbicidal ratio of 5% or lower (almost no effect)). The “G: Setaria viridis, herbicidal effect (criteria of Test Example 1)” value (Setaria viridis [1]) was 5 (Herbicidal ratio of 90% or more (almost completely withered)), the “Herbicidal effect grade, Q” value (Galium spurium) was 0 (Herbicidal ratio of 5% or lower (almost no effect)) and the “Herbicidal effect grade, O” value (Chenopodium album) was 0 (Herbicidal ratio of 5% or lower (almost no effect)). For the same compound, the “Herbicidal effect grade, G” value (Setaria viridis [2]) was 4 (Herbicidal ratio of 70% or higher and lower than 90%), the “J: Alopecurus myosuroides, herbicidal effect (criteria of Test Example 1)” value (Alopecurus myosuroides) was 5 (Herbicidal ratio of 90% or more (almost completely withered)) and the “Herbicidal effect grade, A: Echinochloa oryzacola Vasing.” value [3] was 5 (Herbicidal ratio of 90% or more (almost completely withered)). For the same compound, the “H: Echinochloa crus-galli var. crus-galli, herbicidal effect (criteria of Test Example 1)” value [4] was 5 (Herbicidal ratio of 90% or more (almost completely withered)).
In the case of `CON=C(C)CC1CC(OS(=O)(=O)N(C)C)=C(c2c(C)cc(C)cc2OC)C1=O` (stereo not shown) [6-095], the “Herbicidal effect grade, B” value (Scirpus juncoides) is reported as 4 (Herbicidal ratio of 70% or higher and lower than 90%), the “Herbicidal effect grade, R” value (Veronica persica) is reported as 0 (Herbicidal ratio of 5% or lower (almost no effect)) and the “Herbicidal effect grade, N” value (Amaranthus retroflexus) is reported as 1 (Herbicidal ratio of 5% or higher and lower than 20%). For the same compound, the “G: Setaria viridis, herbicidal effect (criteria of Test Example 1)” value (Setaria viridis [1]) was 5 (Herbicidal ratio of 90% or more (almost completely withered)), the “Herbicidal effect grade, Q” value (Galium spurium) was 0 (Herbicidal ratio of 5% or lower (almost no effect)) and the “Herbicidal effect grade, O” value (Chenopodium album) was 0 (Herbicidal ratio of 5% or lower (almost no effect)). The “Herbicidal effect grade, G” value (Setaria viridis [2]) was 5 (Herbicidal ratio of 90% or more (almost completely withered)), the “J: Alopecurus myosuroides, herbicidal effect (criteria of Test Example 1)” value (Alopecurus myosuroides) was 5 (Herbicidal ratio of 90% or more (almost completely withered)) and the “Herbicidal effect grade, A: Echinochloa oryzacola Vasing.” value [3] was 5 (Herbicidal ratio of 90% or more (almost completely withered)). For the same compound, the “H: Echinochloa crus-galli var. crus-galli, herbicidal effect (criteria of Test Example 1)” value [4] was 5 (Herbicidal ratio of 90% or more (almost completely withered)).
In the case of `CON=C(C)CC1CC(OC(=O)CCCC(C)=O)=C(c2c(C)cc(-c3ccc(Cl)cc3)cc2C)C1=O` (stereo not shown) [6-080], the “Herbicidal effect grade, B” value (Scirpus juncoides) is reported as 1 (Herbicidal ratio of 5% or higher and lower than 20%), the “R: Veronica persica, herbicidal effect grade” value (Veronica persica) is reported as 0 (Herbicidal ratio of 5% or lower (almost no effect)) and the “N: Amaranthus retroflexus, herbicidal effect grade” value (Amaranthus retroflexus) is reported as 1 (Herbicidal ratio of 5% or higher and lower than 20%). The “G: Setaria viridis, herbicidal effect (criteria of Test Example 1)” value (Setaria viridis [1]) was 5 (Herbicidal ratio of 90% or more (almost completely withered)), the “Q: Galium spurium, herbicidal effect grade” value (Galium spurium) was 0 (Herbicidal ratio of 5% or lower (almost no effect)) and the “O: Chenopodium album, herbicidal effect grade” value (Chenopodium album) was 0 (Herbicidal ratio of 5% or lower (almost no effect)). For the same compound, the “G: Setaria viridis, herbicidal effect grade” value (Setaria viridis [2]) was 5 (Herbicidal ratio of 90% or more (almost completely withered)), the “J: Alopecurus myosuroides, herbicidal effect (criteria of Test Example 1)” value (Alopecurus myosuroides) was 5 (Herbicidal ratio of 90% or more (almost completely withered)) and the “Herbicidal effect grade, A: Echinochloa oryzacola Vasing.” value [3] was 5 (Herbicidal ratio of 90% or more (almost completely withered)). For the same compound, the “H: Echinochloa crus-galli var. crus-galli, herbicidal effect (criteria of Test Example 1)” value [4] was 5 (Herbicidal ratio of 90% or more (almost completely withered)).
For `CON=C(C)CC1CC(O)=C(c2c(C)cc(-c3ccccn3)cc2C)C1=O` (mixture of isomers) [6-051], the “Herbicidal effect grade, B” value (Scirpus juncoides) was 4 (Herbicidal ratio of 70% or higher and lower than 90%), the “R: Veronica persica, herbicidal effect grade” value (Veronica persica) was 0 (Herbicidal ratio of 5% or lower (almost no effect)) and the “N: Amaranthus retroflexus, herbicidal effect grade” value (Amaranthus retroflexus) was 5 (Herbicidal ratio of 90% or more (almost completely withered)). The “G: Setaria viridis, herbicidal effect grade” value (Setaria viridis [1]) was 5 (Herbicidal ratio of 90% or more (almost completely withered)), the “Q: Galium spurium, herbicidal effect grade” value (Galium spurium) was 0 (Herbicidal ratio of 5% or lower (almost no effect)) and the “O: Chenopodium album, herbicidal effect grade” value (Chenopodium album) was 0 (Herbicidal ratio of 5% or lower (almost no effect)). The “G: Setaria viridis, herbicidal effect grade” value (Setaria viridis [2]) was 5 (Herbicidal ratio of 90% or more (almost completely withered)), the “J: Alopecurus myosuroides, herbicidal effect grade” value (Alopecurus myosuroides) was 5 (Herbicidal ratio of 90% or more (almost completely withered)) and the “Herbicidal effect grade, A: Echinochloa oryzacola Vasing.” value [3] was 4 (Herbicidal ratio of 70% or higher and lower than 90%). For the same compound, the “H: Echinochloa crus-galli var. crus-galli, herbicidal effect grade” value [4] was 5 (Herbicidal ratio of 90% or more (almost completely withered)).
